Data from US12661355B2, “Compounds and methods for inducing UCP1 expression” (The Regents of the University of California, priority 2020, dated 2026).

Legend:
UCP1 = test: Gene expression in immortalized human brown adipocytes; type: cell-based; settings: 10 μM for 4 days
Description: Human immortalized brown and white preadipocytes were obtained from Dr. Yu-Hua Tseng (Joslin Diabetes Center, Harvard Medical School, USA). The generation of the two cell lines from human neck adipose tissue biopsies and immortalization was performed as previously described but from a different donor. Cells were cultured in high glucose DMEM supplemented with 10% FBS and antibiotics. Two days after reaching confluence, cells were treated with 30 μM biotin, 500 nM insulin, 17 μM pantothenate, 100 nM dexamethasone, 2 nM 3,3′,5-Triiodo-L-thyronine, 500 μM IBMX, 30 μM indomethacin and 1 μM rosiglitazone, for 12 days. Afterwards, cells were treated with 30 μM biotin, 500 nM insulin, 17 μM pantothenate and 2 nM 3,3′,5-Triiodo-L-thyronine (Maintenance media) for 2 days with end-point assays performed on day 18, and for 5 days with end-point assays performed on day 21, for the brown and white adipocytes cells, respectively.
Mouse RNA levels were measured by qPCR according to known methods. Data were normalized to B2m and Tbp reference genes. Human RNA was extracted using an RNA Mini Plus kit (Zymo) and gene expression determined by Taqman assay. The 1-step qPCR was run on a QuantStudio 12K Flex Real Time PCR System (ThermoFisher) using the following protocol: 50° C. for 5 minutes, 95° C. for 20 seconds, 40 cycles of 95° C. for 15 seconds and 60° C. for 60 seconds. […]

AKAP1 = target: T1, AKAP1 (Mus musculus, UniProt O08715); test: Cellular Thermal Shift Assay (CETSA) in brown adipocytes, AKAP1; type: binding; settings: 10 μM for 8 h, heated at 55.8-63.3° C.
T1 construct: from tissue; host or cells: mouse brown adipose tissue (BAT) lysate; also mouse brown adipocyte extracts
T1 sequence (O08715 30-857): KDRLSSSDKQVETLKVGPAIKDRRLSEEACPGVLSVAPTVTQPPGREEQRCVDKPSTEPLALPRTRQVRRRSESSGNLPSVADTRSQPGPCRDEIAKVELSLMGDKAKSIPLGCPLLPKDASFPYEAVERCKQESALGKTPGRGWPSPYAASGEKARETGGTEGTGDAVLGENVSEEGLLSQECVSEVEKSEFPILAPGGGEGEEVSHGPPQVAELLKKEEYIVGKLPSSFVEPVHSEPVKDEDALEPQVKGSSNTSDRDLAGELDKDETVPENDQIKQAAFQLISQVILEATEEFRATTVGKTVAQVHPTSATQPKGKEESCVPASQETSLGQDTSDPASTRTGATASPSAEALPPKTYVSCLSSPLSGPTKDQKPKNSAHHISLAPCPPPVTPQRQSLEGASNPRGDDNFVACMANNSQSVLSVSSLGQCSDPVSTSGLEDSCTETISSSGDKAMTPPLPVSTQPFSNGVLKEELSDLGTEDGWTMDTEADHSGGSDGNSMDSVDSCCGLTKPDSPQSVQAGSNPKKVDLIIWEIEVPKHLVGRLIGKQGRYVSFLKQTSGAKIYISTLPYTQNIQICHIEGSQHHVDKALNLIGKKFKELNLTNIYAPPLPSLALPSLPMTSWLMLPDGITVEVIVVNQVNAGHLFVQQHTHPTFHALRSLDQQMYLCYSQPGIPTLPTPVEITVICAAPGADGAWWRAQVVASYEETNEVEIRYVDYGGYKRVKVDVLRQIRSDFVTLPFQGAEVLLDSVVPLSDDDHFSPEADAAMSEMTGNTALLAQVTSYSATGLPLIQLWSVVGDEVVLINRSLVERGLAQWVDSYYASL
Description: CETSA assays were performed according to known methods. Briefly, differentiated brown adipocytes (one 10 cm dish per treatment) were treated with vehicle or compounds, trypsinized, counted, and re-suspended in approximately 450 μl PBS containing protease inhibitors (volumes were adjusted to have the same number of cells in each treatment). For each sample, 18 μl was distributed into each of 7 PCR tubes. Samples were heated using a thermocycler with a temperature gradient (iCycler, Biorad) for 3 min, followed by 3 min at room temperature, and then snap-frozen in liquid N2. After two freeze-thaw cycles, samples were centrifuged at 20,000 g for 15 min at 4° C., and the supernatants were transferred to another set of tubes. Proteins were analyzed by immunoblotting.
The PKA tetramer consists of two catalytic and two regulatory subunits. In the mouse, these are catalytic subunits C-α and C-β, and regulatory subunits RI and RII, each with α and β isoforms (RI-α, RI-β, RII-α, RII-β). […]
The potential interaction of Z160 with PKA subunits and AKAPs was assessed first by identifying which PKA subunits and AKAP isoforms are normally present in BAT. […] To perform the CETSA assays, cultured brown adipocytes were incubated with 10 μM Z160 for 8 h, after which the thermal shift was analyzed by Western blot.

COc1ccc(NC(=O)CSc2nc3ccccc3c(=O)[nH]2)c(OC)c1 [Z160]
CIDEA expression (UCP1): increased expression
UCP1 expression (UCP1): ~7 fold
heat stability of AKAP1 (AKAP1): increased the heat stability
